Test results taken from ChEMBL document CHEMBL5614422, “Design, synthesis and biological evaluation of N-salicyloyl tryptamine derivatives as multifunctional neuroprotectants for the treatment of ischemic stroke” (Eur J Med Chem, 2024).
Calls of active or inactive are those of the source. No cut-off for these calls is given here.

How the values were obtained:
Mus musculus [1] = experiment: Neuroprotective activity against MCAO-R induced 12 hrs fasted male C57BL/6J mouse model assessed as alleviation of neurological impairment at 10 to 50 mg/kg, ip administered once a day for 7 days by H and E staining based analysis; format: functional, organism-based; conditions: dose 10-50 mg/kg, time 7.0 day
HT-22 [2] = experiment: Upregulation of GPX4 protein level in OGD/R induced mouse HT-22 cells at 10 uM in presence of ML385 by Western blot analysis; format: functional, cell-based
HT-22 [3] = experiment: Anti-ferroptotic activity against OGD/R induced mouse HT-22 cells decrease as in Fe2+ level at 10 uM in presence of ML385 by cell ferrous calorimetry analysis; format: functional, cell-based
HT-22 [4] = experiment: Upregulation of GCLC protein level in OGD/R induced mouse HT-22 cells at 1 to 10 uM by Western blot analysis; format: functional, cell-based; conditions: dose 1-10 µM
HT-22 [5] = experiment: Anti-ferroptotic activity against OGD/R induced mouse HT-22 cells increase in GSH level at 10 uM in presence of ML385; format: functional, cell-based
[6] = target: T1, Nuclear factor erythroid 2-related factor 2 (Mus musculus) (UniProt Q60795); experiment: Activation of Nrf2 in OGD/R induced mouse HT-22 cells assessed as induction of Nrf2 nuclear translocation at 1 to 10 uM by immunofluorescence analysis; format: cell-based; conditions: filed as activator, dose 1-10 µM
T1 sequence (whole entry): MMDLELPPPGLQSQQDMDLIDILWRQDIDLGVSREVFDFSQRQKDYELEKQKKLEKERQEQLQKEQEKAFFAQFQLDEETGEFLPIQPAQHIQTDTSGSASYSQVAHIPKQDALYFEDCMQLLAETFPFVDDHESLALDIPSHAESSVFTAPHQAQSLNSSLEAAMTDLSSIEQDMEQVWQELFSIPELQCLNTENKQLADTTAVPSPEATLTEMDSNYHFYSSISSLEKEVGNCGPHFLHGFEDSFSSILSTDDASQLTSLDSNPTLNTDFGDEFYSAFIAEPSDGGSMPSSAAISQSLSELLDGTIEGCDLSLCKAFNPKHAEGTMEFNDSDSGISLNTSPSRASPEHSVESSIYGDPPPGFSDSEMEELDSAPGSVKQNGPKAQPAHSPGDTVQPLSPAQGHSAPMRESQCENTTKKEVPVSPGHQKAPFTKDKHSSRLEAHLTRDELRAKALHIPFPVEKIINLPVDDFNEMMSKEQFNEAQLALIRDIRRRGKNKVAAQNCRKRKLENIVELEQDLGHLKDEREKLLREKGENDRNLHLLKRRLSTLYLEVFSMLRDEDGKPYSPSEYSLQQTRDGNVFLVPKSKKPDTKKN

HT-22 [7] = experiment: Anti-ferroptotic activity in mouse HT-22 cells assessed as prevention of erastin-induced cell death at 1 to 10 uM by MTT assay; format: functional, cell-based; conditions: dose 1-10 µM
HT-22 [8] = experiment: Antioxidant activity against OGD/R induced oxidative stress in mouse HT-22 cells assessed as reduction in ROS release level at 10 uM in presence of ML385by DCFH-DA staining based flow cytometry analysis; format: functional, cell-based
Mus musculus [9] = experiment: Neuroprotective activity against MCAO-R induced 12 hrs fasted male C57BL/6J mouse model assessed as decrease in MDA level in cerebral ischemic tissue at 10 to 50 mg/kg, ip administered once a day for 7 days; format: functional, organism-based; conditions: dose 10-50 mg/kg, time 7.0 day
Mus musculus [10] = experiment: In vivo activation of Nrf2 pathway in MCAO-R induced 12 hrs fasted male C57BL/6J mouse model assessed as increase in HO-1 expression level at 10 to 50 mg/kg, ip by Western blot analysis; format: functional, organism-based; conditions: dose 10-50 mg/kg
HT-22 [11] = experiment: Cytoprotective activity against OGD/R induced mouse HT-22 cells assessed as inhibition of intracellular LDH release at 10 uM; format: functional, cell-based
Mus musculus [12] = experiment: Neuroprotective activity against MCAO-R induced 12 hrs fasted male C57BL/6J mouse model assessed as decrease in S100 expression in DG by measuring decrease in fluorescence intensity administered once a day as ip dose for 7 days by immunofluorescence method; format: functional, organism-based; conditions: dose 10-50 mg/kg, time 7.0 day
BV-2 = experiment: Anti-inflammatory activity against OGD/R and erastin induced ferroptosis in mouse BV-2 cells assessed as inhibition of IL-18 production preincubated for 6 hrs followed by OGD addition and measured after 1 hr by ELISA method; format: functional, cell-based; conditions: dose 10-40 µM, time 7.0 hrs
HT-22 [13] = experiment: Antioxidant activity against OGD/R induced oxidative stress in mouse HT-22 cells assessed as increase in SOD activity by absorbance based automatic microplate reader analysis; format: functional, cell-based
Mus musculus [14] = experiment: In vivo activation of Nrf2 pathway in MCAO-R induced 12 hrs fasted male C57BL/6J mouse model assessed as increase in NQO1 expression level at 10 to 50 mg/kg, ip by Western blot analysis; format: functional, organism-based; conditions: dose 10-50 mg/kg
Mus musculus [15] = experiment: Neuroprotective activity against MCAO-R induced 12 hrs fasted male C57BL/6J mouse model assessed as reduction in neurologic deficit score administered as ip once a day for 7 days by TTC staining based analysis; format: functional, organism-based; conditions: time 7.0 day
HT-22 [16] = experiment: Anti-ferroptotic activity against OGD/R induced mouse HT-22 cells decrease as in Fe2+ level at 10 uM by cell ferrous calorimetry analysis; format: functional, cell-based
HT-22 [17] = experiment: Induction of morphological changes in OGD/R induced mouse HT-22 cells assessed as attenuation of synaptic shortening by microscopic based analysis; format: functional, cell-based
Mus musculus [18] = experiment: Neuroprotective activity against MCAO-R induced 12 hrs fasted male C57BL/6J mouse model assessed as reduction in neurologic deficit score at 10 to 50 mg/kg, ip for 7 days by […]; format: functional, organism-based; conditions: dose 10-50 mg/kg, time 7.0 day
HT-22 [19] = experiment: Upregulation of NQO1 protein level in OGD/R induced mouse HT-22 cells at 1 to 10 uM by Western blot analysis; format: functional, cell-based; conditions: dose 1-10 µM
Mus musculus [20] = experiment: Neuroprotective activity against MCAO-R induced 12 hrs fasted male C57BL/6J mouse model assessed as decrease in S100 expression in CA1 by measuring decrease in fluorescence intensity administered once a day as ip dose for 7 days by immunofluorescence method; format: functional, organism-based; conditions: dose 10-50 mg/kg, time 7.0 day
[21] = Antioxidant activity assessed as free radical scavenging activity at 40 to 80 uM incubated in dark for 30 mins under shaking condition by DPPH assay; format: functional; conditions: dose 40-80 µM
HT-22 [22] = experiment: Induction of morphological changes in OGD/R induced mouse HT-22 cells assessed as attenuation of cell rounding by microscopic based analysis; format: functional
Mus musculus [23] = experiment: Neuroprotective activity against MCAO-R induced 12 hrs fasted male C57BL/6J mouse model assessed as improvement in brain tissue structure at 10 to 50 mg/kg, ip administered once a day for 7 days by H and E staining based analysis; format: functional, organism-based; conditions: dose 10-50 mg/kg, time 7.0 day
HT-22 [24] = experiment: Upregulation of Nrf2 protein level in OGD/R induced mouse HT-22 cells at 10 uM in presence of ML385 by Western blot analysis; format: functional, cell-based
HT-22 [25] = experiment: Anti-ferroptotic activity against OGD/R induced mouse HT-22 cells increase in GSH level at 10 uM; format: functional, cell-based
Mus musculus [26] = species: Mus musculus; experiment: Antiinflammatory activity in MCAO-R induced 12 hrs fasted male C57BL/6J mouse model assessed as reduction in IL-6 level by ELISA method; format: functional, organism-based
Mus musculus [27] = experiment: Neuroprotective activity against MCAO-R induced 12 hrs fasted male C57BL/6J mouse model assessed as increase in SOD activity in cerebral ischemic tissue at 10 to 50 mg/kg, ip administered once a day for 7 days; format: functional, organism-based; conditions: dose 10-50 mg/kg, time 7.0 day

## Cc1ccc(C(=O)NCCc2c[nH]c3ccc(N(C)C)cc23)c(O)c1
Mus musculus [1]
  Activity: Active
HT-22 [2]
  Activity: inactive
HT-22 [3]
  Activity: inactive
HT-22 [4]
  Activity: Active
HT-22 [5]
  Activity: inactive
[6]
  Activity: Active
HT-22 [7]
  Activity: Active
HT-22 [8]
  Activity: inactive
Mus musculus [9]
  Activity: Active
Mus musculus [10]
  Activity: Active
HT-22 [11]
  Activity: Active
Mus musculus [12]
  Activity: Dose-Dependent Effect
BV-2
  Activity: Dose-Dependent Effect
HT-22 [13]
  Activity: Active
Mus musculus [14]
  Activity: Active
Mus musculus [15]
  Activity: Dose-Dependent Effect
HT-22 [16]
  Activity: Active
HT-22 [17]
  Activity: Active
Mus musculus [18]
  Activity: Active
HT-22 [19]
  Activity: Active
Mus musculus [20]
  Activity: Dose-Dependent Effect
[21]
  Activity: Active
HT-22 [22]
  Activity: Active
Mus musculus [23]
  Activity: Active
HT-22 [24]
  Activity: inactive
HT-22 [25]
  Activity: Active
Mus musculus [26]
  Activity: Active
Mus musculus [27]
  Activity: Active
